Reference: patent publication US8809627B2, “Plant isoflavone and isoflavanone O-methyltransferase genes” (The Samuel Roberts Noble Foundation, Inc., priority 2006, dated 2014)

biological target: T1, MsI7OMT (Medicago sativa, UniProt O24529); assay: OMT assays with purified recombinant MsI7OMT (relative activity); type: biochemical; conditions: 50 μM S-adenosyl methionine, 100 μM acceptor substrate; most converted substrate = 100%
T1 sequence (O24529 1-352): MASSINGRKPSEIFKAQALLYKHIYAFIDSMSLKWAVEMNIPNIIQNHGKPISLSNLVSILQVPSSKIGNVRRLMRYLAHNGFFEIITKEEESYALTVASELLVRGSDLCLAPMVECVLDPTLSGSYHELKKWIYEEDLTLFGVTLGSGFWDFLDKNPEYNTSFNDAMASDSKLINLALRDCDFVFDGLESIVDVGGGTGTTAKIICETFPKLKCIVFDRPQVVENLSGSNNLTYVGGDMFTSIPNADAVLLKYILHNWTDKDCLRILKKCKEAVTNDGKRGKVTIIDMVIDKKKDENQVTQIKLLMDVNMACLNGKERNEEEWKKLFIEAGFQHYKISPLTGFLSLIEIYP
Text: Cloning of MtIOMT5 (corresponding to TC 100926, TIGR MtGI v.8) was as described previously (Liu et al., 2005). To obtain a full-length cDNA for MtIOMT2, specific primers designed based upon the M. truncatula genomic sequence were used to amplify the MtIOMT2 coding sequence from M. truncatula root cDNA. The amplified product was cloned into the pGEM®-T easy vector (Promega, Madison Wis.) and sequenced to confirm its identity. MtIOMTs were cloned into the pET28a vector (EMD Biosciences, Inc., San Diego, Calif.) using PCR-based amplification with primers designed to introduce EcoRI and XhoI restriction sites; BamHI and XhoI sites were used for cloning MtIOMT6 due to the presence of an internal EcoRI site in this particular cDNA. Because the EST for MtIOMT8 was missing a start codon, the primer designed to clone MtIOMT8 into pET28a contained an additional 2-nucleotide insertion to generate an ATG start site. All MtIOMTs were expressed as translational fusions to an N-terminal His-tag. Expression of MtIOMTs in E. coli BL21(DE3) and purification by Ni^2+-NTA chromatography were as described (Zubieta et al., 2001). Proteins were dialyzed against 20 mM Tris pH 8.0, 100 mM NaCl, 10% (v/v) glycerol, and 14 mM β-mercaptoethanol. Protein concentration was determined by Bradford assay using BSA as a standard (Bradford, 1976).
Reactions (200 μl) were performed in 0.1 M potassium phosphate, pH 7.4, 10% (w/v) sucrose, 14 mM β-mercaptoethanol with 10 μM protein, 0.5 mM S-adenosyl-L-methionine, and 80 μM phenolic substrates. All substrates were purchased from Indofine (Hillsborough, N.J.) except 6,7-dihydroxy-4′-methoxyisoflavone, dihydrodaidzein, and vestitol, which were purchased from Apin (Oxfordshire, UK). […] OMT assays were incubated at 30° C. for 2 h and extracted with ethyl acetate. Ethyl acetate extracts were dried under N2 and the resultant material was resuspended in 50-100 μl of methanol. Samples were analyzed on an Agilent 1100 HPLC, equipped with a quaternary pump (model #G1311A), a degasser (model #G1322A), an autosampler (model #G1313A), and a diode array detector (model #G1315A). Samples of 20 μl were applied to an ODS2 reverse-phase column (5 μm particle size, 4.6×250 mm) and eluted in 1% (v/v) phosphoric acid with an increasing gradient of acetonitrile (0-5 min, 25%; 5-35 min, 25-50%; 35-39 min, 50-100%) at a flow rate of 1 ml/min. To resolve the 4′-O-methylated and 7-O-methylated products of genistein, samples were applied to a Phenomenex SYNERGI Polar-RP 80 Å column (4 μm particle size, 4.6×250 mm) and eluted in water with an increasing gradient of acetonitrile (0-5 min, 20%; 5-17 min, 20-38%; 17-33 min, 38%; 33-45 min, 38-56%; 45-46 min, 56-100%) at a flow rate of 1 ml/min. Chiral chromatography was performed as described (Liu et al., 2005).
For determination of specific activities, reactions (100 μl) were performed in 0.1 M potassium phosphate, pH 7.4, 10% (w/v) sucrose, 14 mM β-mercaptoethanol with 0.2-μg protein, 50 μM S-adenosyl-L-methionine (0.025 μCi ^14C-SAM per reaction), and 100 μM substrate. Reactions were incubated at 30° C. for 15-25 min and stopped by addition of 4 μl of 1N HCl. Products were extracted into 500 μl of ethyl acetate and 400 μl was used for liquid scintillation counting.

Structure (SMILES) | Relative activity, MsI7OMT
O=c1cc(-c2ccc(O)cc2)oc2cc(O)cc(O)c12 [Apigenin] | 0%
O=c1c(-c2ccc(O)cc2)coc2cc(O)ccc12 [Daidzein] | 21.6%
O=C1C[C@@H](c2ccc(O)cc2)Oc2cc(O)cc(O)c21 [Naringenin] | 0%
O=c1c(-c2ccc(O)cc2)coc2cc(O)cc(O)c12 [Genistein] | 15%
O=c1c(-c2ccc(O)cc2)coc2cc(O)c(O)cc12 [6,7,4′-trihydroxyisoflavone] | 51.8%
COc1ccc(-c2coc3cc(O)c(O)cc3c2=O)cc1 [6,7-dihydroxy,4′-methoxyisoflavone] | ≦1%
O=c1c(-c2ccc(O)c(O)c2)coc2cc(O)ccc12 [7,3′,4′-trihydroxyisoflavone] | 47.1%
O=c1oc2cc(O)ccc2c2oc3cc(O)ccc3c12 [Coumestrol] | 0%
COc1cc2c(=O)c(-c3ccc(O)cc3)coc2cc1O [Glycitein] | 100%
O=c1cc(-c2ccc(O)cc2)oc2cc(O)ccc12 [7,4′-dihydroxyflavone] | 0%
O=c1c(O)c(-c2cc(O)c(O)c(O)c2)oc2cc(O)cc(O)c12 [Myricetin] | 0%
COc1ccc(C2COc3cc(O)ccc3C2)c(O)c1 (centres unmarked) [Vestitol] | 0%
O=C1c2ccc(O)cc2OCC1c1ccc(O)cc1 (centres unmarked) [Dihydrodaidzein] | 12.8%

biological target: T1, MsI7OMT; assay: not given; conditions: reported by He et al., 1998; cited from earlier work

Structure (SMILES) | Activity of MsI7OMT relative to the activity with daidzein
O=c1c(-c2ccc(O)cc2)coc2cc(O)c(O)cc12 [6,7,4′-trihydroxyisoflavone] | 136 % of the activity with daidzein
